What was measured:
Assay type in all cases: functional
Staphylococcus aureus = experiment: Antibacterial activity against Staphylococcus aureus NCTC 8325 assessed as reduction in microbial growth
Enterococcus = experiment: Antibacterial activity against vancomycin-resistant Enterococcus assessed as reduction in microbial growth
[1] = test system: Mycobacterium tuberculosis; experiment: Antibacterial activity against Mycobacterium tuberculosis assessed as reduction in microbial growth

| Compound | MIC (Staphylococcus aureus) [µg/mL] | MIC (Enterococcus) [µg/mL] | MIC [1] [µg/mL] |
| --- | --- | --- | --- |
| CC(=O)NC[C@H]1CN(c2ccc(N3CCOCC3)c(F)c2)C(=O)O1 [LINEZOLID] | 1 |  |  |
| O=C(Nc1ccc2c(c1)OC(F)(F)O2)Nc1ccc(Cl)c(C(F)(F)F)c1 | 0.18 | 1 | 0.93 |
| CN[C@H](CC(C)C)C(=O)N[C@H]1C(=O)N[C@@H](CC(N)=O)C(=O)N[C@H]2C(=O)N[C@H]3C(=O)N[C@H](C(=O)N[C@H](C(=O)O)c4cc(O)cc(O)c4-c4cc3ccc4O)[C@H](O)c3ccc(c(Cl)c3)Oc3cc2cc(c3O[C@@H]2O[C@H](CO)[C@@H](O)[C@H](O)[C@H]2O[C@H]2C[C@](C)(N)[C@H](O)[C@H](C)O2)Oc2ccc(cc2Cl)[C@H]1O [VANCOMYCIN] | 1.4 |  |  |

From ChEMBL document CHEMBL4610080, “Natural Products as Sources of New Drugs over the Nearly Four Decades from 01/1981 to 09/2019” (2020)
